This note sets out measurements from patent US20240293392A1, “INHIBITOR COMPOUNDS” (NeoPhore Limited, priority 2021, published 2024).

The target of test [1] is T1, recombinant N-terminal PMS2 (residues 1-365) (Homo sapiens, UniProt P54278).
T1 construct: recombinant N-terminal PMS2 (residues 1-365)
T1 sequence (P54278 1-365): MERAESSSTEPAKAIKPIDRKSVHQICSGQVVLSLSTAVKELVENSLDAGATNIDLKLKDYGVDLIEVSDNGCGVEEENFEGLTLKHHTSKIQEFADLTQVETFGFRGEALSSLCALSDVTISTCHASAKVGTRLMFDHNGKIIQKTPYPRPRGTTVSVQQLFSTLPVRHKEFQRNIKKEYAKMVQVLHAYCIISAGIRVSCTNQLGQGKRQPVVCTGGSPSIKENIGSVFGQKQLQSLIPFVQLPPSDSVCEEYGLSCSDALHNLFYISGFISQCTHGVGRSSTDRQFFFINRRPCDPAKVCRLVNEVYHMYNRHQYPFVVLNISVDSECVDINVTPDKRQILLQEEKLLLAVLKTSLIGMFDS
Nature of the test: Fluorescence Polarisation Assay for PMS2. The format is binding. The following applies: fluorescence polarisation probe displacement; 10 nM N-terminal PMS2, 5 nM probe compound; read-out: PMS2 IC50. The procedure, abridged:
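Competition fluorescence polarisation with 10 nM N-terminal PMS2 and 5 nM fluorescent probe (final), read after 1 h at room temperature following 30 min compound pre-incubation. Data normalised to no-inhibitor and no-enzyme controls; single-point screening or serial dilutions for potency.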
(Polarisation of emitted light reports the rotation of a fluorescent probe.)

Test [2] has as its target T2, recombinant N-terminal MLH1 (residues 15-340) (Homo sapiens, UniProt P40692).
T2 construct: recombinant N-terminal MLH1 (residues 15-340)
T2 sequence (P40692 15-340): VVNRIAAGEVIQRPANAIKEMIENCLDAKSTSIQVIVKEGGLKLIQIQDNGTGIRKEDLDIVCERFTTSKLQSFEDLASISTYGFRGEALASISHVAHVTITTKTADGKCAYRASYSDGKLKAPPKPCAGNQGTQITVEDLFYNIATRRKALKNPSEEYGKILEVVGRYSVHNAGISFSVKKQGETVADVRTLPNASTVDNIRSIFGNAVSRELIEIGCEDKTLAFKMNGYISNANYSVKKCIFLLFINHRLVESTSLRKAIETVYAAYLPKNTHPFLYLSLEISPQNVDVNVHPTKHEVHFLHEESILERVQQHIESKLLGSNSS
Put plainly: Fluorescence Polarisation Assay for MLH1. The format is binding. Conditions: fluorescence polarisation probe displacement; 100 nM N-terminal MLH1, 5 nM probe compound. The procedure, abridged:
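FP displacement assay: 100 nM MLH1 (residues 15-340) preincubated 30 min at room temperature with compound in 25 mM HEPES pH 7.5, 250 mM NaCl, 10 mM MgCl2, 0.01% Triton X-100, 5 mM DTT, then 5 nM rhodamine-labelled probe added and read immediately. Data normalised to no-inhibitor and no-enzyme controls.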

Where only a bound is given, the exact number is not on record here.

Regarding `CN1CCC(Nc2cccc3c2CN(C(=O)c2c(O)cc(O)cc2OCc2ccccc2)CC3)CC1=O` (stereo not drawn) [Example 114, 4-((2-(2-(Benzyloxy)-4,6-dihydroxybenzoyl)-1,2,3,4-tetrahydroisoquinolin-8-yl)amino)-1-methylpiperidin-2-one], the half-inhibitory concentration (IC50) in test [1] is greater than 10000 nM; in test [2], 1000 to 10000 nM.

Take `O=C(c1c(O)cc(O)cc1OCc1ccccc1)N1Cc2cccc(NC3CCCOC3)c2C1` (single isomer, unassigned) [Example 31, (2-(Benzyloxy)-4,6-dihydroxyphenyl)(4-((tetrahydro-2H-pyran-3-yl)amino)isoindolin-2-yl)methanone]: the IC50 in test [1] is greater than 10000 nM; in test [2] it was 1000 to 10000 nM.

For the molecule `COc1cc(O)cc(O)c1C(=O)N1Cc2cccc(NC3CCOC3)c2C1` (stereo not drawn) [Example 16, (2,4-Dihydroxy-6-methoxyphenyl)(4-((tetrahydrofuran-3-yl)amino)isoindolin-2-yl)methanone], the values for the IC50 in test [1] and in test [2] were greater than 10000 nM and 1000 to 10000 nM, respectively.

Regarding `CNC(=O)c1ccc2c(c1)CN(C(=O)c1c(O)cc(O)cc1OCc1ccccc1)C2` [Example 86, 2-(2-(Benzyloxy)-4,6-dihydroxybenzoyl)-N-methylisoindoline-5-carboxamide], the IC50 in test [1] and in test [2] was less than 1000 nM in each case.

Consider `O=C(c1c(O)cc(O)cc1OCc1ccccc1)N1Cc2cccc(OC3CCOC3)c2C1` (stereo not drawn) [Example 88, (2-(Benzyloxy)-4,6-dihydroxyphenyl)(4-((tetrahydrofuran-3-yl)oxy)isoindolin-2-yl)methanone], for which the IC50 in test [1] and in test [2] was 1000 to 10000 nM throughout.

Regarding `O=C(c1c(O)cc(O)cc1OCc1ccccc1)N1CCc2cccc(NC3COC3)c2C1` [Example 41, (2-(Benzyloxy)-4,6-dihydroxyphenyl)(8-(oxetan-3-ylamino)-3,4-dihydroisoquinolin-2(1H)-yl)methanone], the figures for the IC50 in test [1] and in test [2] were 1000 to 10000 nM and less than 1000 nM, respectively.

As for `COCCCC(=O)N1CC[C@H](N(C)c2cccc3c2CN(C(=O)c2c(O)cc(O)cc2OCc2ccccc2)CC3)C1` [Example 150, (S)-1-(3-((2-(2-(Benzyloxy)-4,6-dihydroxybenzoyl)-1,2,3,4-tetrahydroisoquinolin-8-yl) (methyl)amino)pyrrolidin-1-yl)-4-methoxybutan-1-one], the IC50 in test [1] was greater than 10000 nM; in test [2], 1000 to 10000 nM.

On to `Cn1ccc(Nc2cccc3c2CN(C(=O)c2c(O)cc(O)cc2OCc2ccccc2)CC3)cc1=O` [Example 133, 4-((2-(2-(Benzyloxy)-4,6-dihydroxybenzoyl)-1,2,3,4-tetrahydro-isoquinolin-8-yl)amino)-1-methylpyridin-2(1H)-one], for which the IC50 in test [1] and in test [2] was 1000 to 10000 nM throughout.

In the case of `CC(=O)N1CCC(Nc2cccc3c2CN(C(=O)c2c(O)cc(O)cc2OCc2ccccc2)CC3)CC1` [Example 69, 1-(4-((2-(2-(Benzyloxy)-4,6-dihydroxybenzoyl)-1,2,3,4-tetrahydroisoquinolin-8-yl)amino)piperidin-1-yl)ethan-1-one], the IC50 in test [1] was greater than 10000 nM; in test [2] it was 1000 to 10000 nM.

For the molecule `O=C(c1c(O)cc(O)cc1OCc1ccccc1)N1Cc2cccc(NC3CCCOC3)c2C1` (single isomer, unassigned) [Example 30, (2-(Benzyloxy)-4,6-dihydroxyphenyl)(4-((tetrahydro-2H-pyran-3-yl)amino)isoindolin-2-yl)methanone], the half-inhibitory concentration (IC50) in test [1] was 1000 to 10000 nM; in test [2], less than 1000 nM.

Take `NC(=O)c1cccc(Nc2cccc3c2CN(C(=O)c2c(O)cc(O)cc2OCc2ccccc2)CC3)c1` [Example 74, 3-((2-(2-(Benzyloxy)-4,6-dihydroxybenzoyl)-1,2,3,4-tetrahydroisoquinolin-8-yl)amino)benzamide]: the IC50 in test [1] and in test [2] was greater than 10000 nM throughout.

As for `COc1ccc2c(c1)CN(C(=O)c1c(O)cc(O)cc1OCc1ccccc1)CC2` [Example 49, (2-Benzyloxy-4,6-dihydroxy-phenyl)-(7-methoxy-3,4-dihydro-1H-isoquinolin-2-yl)methanone], the IC50 in test [1] and in test [2] was 1000 to 10000 nM in each case.

Take `COCCOc1cc2c(c(N[C@@H]3CCOC3)c1)CN(C(=O)c1c(O)cc(O)cc1OCc1ccccn1)CC2` [Example 142, (R)-(2,4-Dihydroxy-6-(pyridin-2-ylmethoxy)phenyl)(6-(2-methoxyethoxy)-8-((tetrahydrofuran-3-yl)amino)-3,4-dihydroisoquinolin-2(1H)-yl)methanone]: the IC50 in test [1] was greater than 10000 nM; in test [2], less than 1000 nM.

On to `CNc1cccc2c1CN(C(=O)c1c(O)cc(O)cc1OCc1ccccc1)C2` [Example 29, (2-(Benzyloxy)-4,6-dihydroxyphenyl)(4-(methylamino)isoindolin-2-yl)methanone], for which the IC50 in test [1] and in test [2] was 1000 to 10000 nM in each case.

On to `O=C(c1c(O)cc(O)cc1OCc1ccccc1)N1Cc2cccc(NCC3CCCO3)c2C1` (stereo not drawn) [Example 33, (2-(Benzyloxy)-4,6-dihydroxyphenyl)(4-(((tetrahydrofuran-2-yl)methyl)amino)isoindolin-2-yl)methanone], for which the IC50 in test [1] was 1000 to 10000 nM; in test [2] it was less than 1000 nM.

Turning to `O=C(c1c(O)cc(O)cc1OCC1CCCCC1)N1CCc2cccc(N[C@H]3CCOC3)c2C1` [Example 140, (S)-(2-(Cyclohexylmethoxy)-4,6-dihydroxyphenyl)(8-((tetrahydrofuran-3-yl)amino)-3,4-dihydroisoquinolin-2(1H)-yl)methanone], the IC50 in test [1] was less than 1000 nM; in test [2], 1000 to 10000 nM.

As to `CC12CC(Nc3cccc4c3CN(C(=O)c3c(O)cc(O)cc3OCc3ccccc3)C4)(CO1)C2` [Example 52, (2-(Benzyloxy)-4,6-dihydroxyphenyl)(4-((1-methyl-2-oxabicyclo[2.1.1]hexan-4-yl)amino)isoindolin-2-yl)methanone], the IC50 was 1000 to 10000 nM in test [1] and less than 1000 nM in test [2].

As to `O=C(c1c(O)cc(O)cc1OCc1ccccc1)N1Cc2ccc(CN3CCNCC3)cc2C1` [Example 3, (2-(Benzyloxy)-4,6-dihydroxyphenyl)(5-(piperazin-1-ylmethyl)isoindolin-2-yl)methanone], the 50% inhibitory concentration (IC50) in test [1] was 1000 to 10000 nM; in test [2], less than 1000 nM.

Take `CN(C)Cc1cc2c(c(N[C@@H]3CCOC3)c1)CN(C(=O)c1c(O)cc(O)cc1OCc1ccccc1)CC2` [Example 126, (R)-(2-(Benzyloxy)-4,6-dihydroxyphenyl)(6-((dimethylamino)methyl)-8-((tetrahydrofuran-3-yl)amino)-3,4-dihydroisoquinolin-2(1H)-yl)methanone]: the IC50 in test [1] is 1000 to 10000 nM; in test [2], less than 1000 nM.

On to `O=C(c1c(O)cc(O)cc1OCc1ccccc1)N1Cc2ccccc2C1CO` (stereo not drawn) [Example 13, (2-(Benzyloxy)-4,6-dihydroxyphenyl)(1-(hydroxymethyl)isoindolin-2-yl)methanone], for which the values for the IC50 in test [1] and in test [2] were 1000 to 10000 nM and less than 1000 nM, respectively.

On to `COCCOc1cc2c(c(N[C@@H]3CCOC3)c1)CN(C(=O)c1c(O)cc(O)cc1OCC1CC1)CC2` [Example 141, (R)-(2-(Cyclopropylmethoxy)-4,6-dihydroxyphenyl)(6-(2-methoxyethoxy)-8-((tetrahydrofuran-3-yl)amino)-3,4-dihydroisoquinolin-2(1H)-yl)methanone], for which the results for the IC50 in test [1] and in test [2] were greater than 10000 nM and 1000 to 10000 nM, respectively.

Turning to `O=C(c1c(O)cc(O)cc1OCc1ccccc1)N1Cc2cccc(CNC3CCOC3)c2C1` (stereo not drawn) [Example 80, (2-(Benzyloxy)-4,6-dihydroxyphenyl)(4-(((tetrahydrofuran-3-yl)amino)methyl)isoindolin-2-yl)methanone], the IC50 in test [1] and in test [2] was 1000 to 10000 nM in each case.

On to `O=C(c1c(O)cc(O)cc1OCc1ccccc1)N1Cc2cccc(NC3CCCOC3)c2C1` (stereo not drawn) [Example 14, (2-(Benzyloxy)-4,6-dihydroxyphenyl)(4-((tetrahydro-2H-pyran-3-yl)amino)isoindolin-2-yl)methanone], for which the figures for the IC50 in test [1] and in test [2] were 1000 to 10000 nM and less than 1000 nM, respectively.

Regarding `CN(C)C(=O)c1cc2c(c(N[C@@H]3CCOC3)c1)CN(C(=O)c1c(O)cc(O)cc1OCc1ccccc1)CC2` [Example 129, (R)-2-(2-(Benzyloxy)-4,6-dihydroxybenzoyl)-N,N-dimethyl-8-((tetrahydrofuran-3-yl)amino)-1,2,3,4-tetrahydroisoquinoline-6-carboxamide], the IC50 in test [1] was 1000 to 10000 nM; in test [2], less than 1000 nM.

As usually defined, the IC50 is the concentration that gives 50% inhibition.
